Test results taken from patent US20250099420A1, “SMALL MOLECULE MODULATORS OF GPR139 COMPLEX” (University of Florida Research Foundation, Incorporated, priority 2022, published 2025).
Like-named read-outs stand apart in the source and are kept apart here.

Experiments:
[1] = target: T1, GPR139 (Homo sapiens, UniProt Q6DWJ6); assay: GPR139 Agonist titration / agonist counterscreen assay (calcium detection, HEK-GPR139 cells); assay type: cell-based; parameters: expressed in transfected cells; host or cells: HEK Aequorin cells, Maxcyte transient transfection; conditions: GPR139 Agonist Activity; for EC50: read-out: EC50; for Averaged Max % Response (±St. Dev.): activity relative to known control
T1 sequence (Q6DWJ6 1-353): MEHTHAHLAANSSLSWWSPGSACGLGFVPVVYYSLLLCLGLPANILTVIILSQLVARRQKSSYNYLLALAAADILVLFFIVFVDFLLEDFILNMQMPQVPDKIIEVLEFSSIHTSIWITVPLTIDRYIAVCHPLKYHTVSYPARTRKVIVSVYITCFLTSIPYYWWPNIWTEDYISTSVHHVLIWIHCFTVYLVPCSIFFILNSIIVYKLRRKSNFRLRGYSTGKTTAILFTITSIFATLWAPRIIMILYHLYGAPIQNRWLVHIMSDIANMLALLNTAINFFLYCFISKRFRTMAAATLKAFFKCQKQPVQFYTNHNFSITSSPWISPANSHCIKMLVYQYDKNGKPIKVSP
Procedure: GPR activity was assessed using a calcium detection assay. […] Negative control samples were treated with DMSO. […] Intracellular calcium was measured using Calcium 5.

[2] = system: parental HEK cells; assay: HEK parental Agonist Counterscreen Assay (non-transfected cells); assay type: cell-based; conditions: for Averaged Max % Response (±St. Dev.): activity relative to known control
Source text: The high control for the agonist counterscreen was Forskolin not acetylcholine.

[3] = Homo sapiens, HEK293, HEK Agonist Activity section of Table 4 (parental HEK counterscreen)
[4] = values printed in E-notation without unit
[5] = HEK Agonist Activity section of Table 4 (parental HEK counterscreen)
[6] = HEK Agonist Activity, parental non-transfected HEK cells
[7] = Homo sapiens, HEK293, HEK Agonist Activity, parental non-transfected HEK cells

Row | Compound | Efficiency Ligand [1] | Lipophilic Efficiency (logD) [1] | Lipophilic Efficiency (logP) [1] | EC50 ([1]; HEK-GPR139 cells) [nM] | Averaged Max % Response (±St. Dev.) [1] [%] | Lipophilic Efficiency (logD) ([2]; HEK Agonist Activity section) | Lipophilic Efficiency (logP) ([2]; HEK Agonist Activity section) | Averaged Max % Response (±St. Dev.) ([2]; HEK Agonist Activity section) [%] | Lipophilic Efficiency (logD) ([1]; based on logD) | Lipophilic Efficiency (logP) ([1]; based on logP) | Hill Slope ([1]; fitted dose-response curve) | Efficiency Ligand ([1]; ligand efficiency) | EC50 [1, 4] [nM] | EC50 [2, 5] [nM] | Lipophilic Efficiency (logD) ([2]; HEK Agonist Activity) | Lipophilic Efficiency (logP) ([2]; HEK Agonist Activity) | Averaged Max % Response (±St. Dev.) ([2]; HEK Agonist Activity) [%] | other results
1 | Cc1cccc(-n2cnc3cc(C(=O)NCc4ccc5c(c4)OCO5)ccc32)c1 [SR-01000579592] | 0.28 | 1.75 | 1.75 | > 1500 | 96.78 ± 10.47 | 0.80 | 0.80 | −14.67 ± 10.75 | – | – | – | – | – | – | – | – | – | EC50 [2, 3]: > 13300 nM
2 | CC12C=CC3(CN(Cc4ccccc4)C(=O)C3C1C(=O)NCc1ccco1)O2 (stereo not drawn) [SR-01000582958] | – | – | – | – | 101.07 ± 20.22 | 3.51 | 3.51 | 10.03 ± 5.09 | 5.28 | 5.28 | 0.87 | 0.33 | 228 | > 13400 | – | – | – | –
3 | CC12C=CC3(CN(Cc4ccccc4)C(=O)C3C1C(=O)NCC1COc3ccccc3O1)O2 (stereo not drawn) [SR-01000582967] | 0.27 | 4.47 | 4.47 | 375 | 117.27 ± 2.34 | 2.93 | 2.93 | −6.63 ± 2.99 | – | – | – | – | – | > 13100 | – | – | – | Hill Slope [1]: 0.38
4 | CC1CC(C)CN(C(=O)C2C3C=CC4(CN(Cc5ccccc5Cl)C(=O)C24)O3)C1 (stereo not drawn) [SR-01000583192] | – | – | – | – | 108.22 ± 25.63 | 2.09 | 2.09 | 13.45 ± 13.24 | 4.61 | 4.61 | 0.51 | 0.35 | 48.1 | > 15900 | – | – | – | –
5 | O=C(NCCc1ccc(Cl)cc1)c1ccc(N2CC3CC(C2)c2cccc(=O)n2C3)c(NS(=O)(=O)c2ccc3c(c2)OCCO3)c1 (stereo not drawn) [SR-01000583473] | – | – | – | – | 116.62 ± 3.81 | – | – | – | 3.89 | 3.71 | 0.26 | 0.23 | 40.1 | – | 1.64 | 1.46 | 54.64 ± 8.92 | Hill Slope ([2]; HEK Agonist Activity): 0.45; EC50 [2, 6]: 7200 nM
6 | O=C(CN1CC(=O)N(Cc2ccc(O)cc2)C(c2ccccc2Cl)C1=O)NCc1ccco1 (stereo not drawn) [SR-01000583711] | 0.27 | 3.24 | 3.24 | 469 | 95.83 ± 14.92 | 1.87 | 1.87 | 9.29 ± 2.62 | – | – | – | – | – | – | – | – | – | Hill Slope [1]: 0.32; EC50 [2, 3]: > 11100 nM
7 | COP(=O)(CN(CCc1ccc(Cl)cc1)C(=O)Nc1ccc(Cl)c(Cl)c1)OC [SR-01000584158] | – | – | – | – | 123.61 ± 28.77 | – | – | – | 2.25 | 2.25 | 0.47 | 0.37 | 36.6 | – | −0.34 | −0.34 | 0.77 ± 6.52 | EC50 [2, 6]: > 14100 nM
8 | CCn1c(=O)n(CC(=O)NCC2COc3ccccc3O2)c(=O)c2ccccc21 (stereo not drawn) [SR-01000589950] | – | – | – | – | 90.30 ± 31.36 | – | – | – | 5.98 | 5.98 | 0.72 | 0.36 | 36.4 | – | 3.39 | 3.39 | −9.62 ± 21.31 | EC50 [2, 7]: > 14100 nM
9 | Nc1ccc2c(C(F)(F)F)cc(=O)oc2c1 [SR-01000597171] | 0.47 | 3.74 | 3.74 | > 4400 | 177.62 ± 11.26 | 3.35 | 3.35 | 92.06 ± 10.88 | – | – | – | – | – | 10700 | – | – | – | Hill Slope ([2]; HEK Agonist Activity section): 2.90
10 | Cc1onc(-c2ccccc2Cl)c1C(=O)NNC(=O)CSc1ccccc1[N+](=O)[O-] [SR-01000633083] | – | – | – | – | 100.43 ± 4.95 | – | – | – | 4.82 | 4.81 | 0.91 | 0.38 | 6.7 | – | 1.49 | 1.48 | 21.09 ± 6.01 | EC50 [2, 7]: > 14100 nM
11 | Cc1nn(-c2ccccc2)nc1C(=O)NNC(=O)CSCc1cccc2ccccc12 [SR-01000634249] | 0.26 | 2.57 | 2.57 | 1700 | 89.30 ± 20.10 | 1.65 | 1.65 | 7.70 ± 7.23 | – | – | – | – | – | > 14100 | – | – | – | Hill Slope [1]: 0.69
12 | COc1cc(C(=O)NNC(=O)C(C)Oc2ccc(Cl)cc2Cl)cc(OC)c1OC (stereo not drawn) [SR-01000644888] | 0.31 | 3.44 | 3.40 | 352 | 113.87 ± 14.45 | 1.84 | 1.80 | 30.23 ± 7.95 | – | – | – | – | – | – | – | – | – | Hill Slope [1]: 0.74; EC50 [2, 3]: > 14100 nM
13 | COc1ccc(CCNC(=O)c2cccc(-c3ccc(OC)nc3)c2)cc1 [SR-01000652579] | – | – | – | – | 108.92 ± 9.07 | 1.08 | 1.08 | 11.17 ± 6.82 | 3.26 | 3.26 | 0.44 | 0.36 | 93.2 | > 14200 | – | – | – | –
14 | COc1ccc(CCNC(=O)c2cnc(N3CCCC3CO)s2)cc1 (stereo not drawn) [SR-01000652673] | – | – | – | – | 123.26 ± 12.43 | – | – | – | 5.68 | 5.68 | 0.93 | 0.44 | 11.5 | – | 2.61 | 2.61 | 3.95 ± 2.97 | EC50 [2, 7]: > 13400 nM
15 | COc1ccc(CCNC(=O)c2ccnc(N3CCN(Cc4ccc5c(c4)OCO5)CC3)c2)cc1 [SR-01000654192] | – | – | – | – | 115.41 ± 10.16 | 1.42 | 1.29 | 14.64 ± 17.11 | 3.51 | 3.38 | 0.89 | 0.28 | 110 | > 13300 | – | – | – | –
